Consider three molecules from paper PMC10973027 (Molecular Imaging and Biology, 2023).

Molecules are shown by their SMILES.

The nature of series [1]: Radio-HPLC metabolite analysis of mouse brain homogenate and plasma after IV radiotracer. The series is classed as in vivo, male C57 black 6 mice. On the procedure:
In this preclinical study, two radiolabeling positions were investigated, [^11C-N-CH3]UCB2713 and [^11C]carbonyl UCB2713 ([^11C-CO]UCB2713). The radiolabeling of [^11C-N-CH3]UCB2713 was performed by N-methylation of the corresponding desmethyl precursor with [^11C]methyl iodide and radiolabeling of [^11C-CO]UCB2713 was performed by [^11C]aminocarbonylation of the iodo precursor and the amino precursor with [^11C]carbon monoxide in the presence of Pd(π-cinnamyl) chloride dimer and Xantphos (4,5-bis(diphenylphosphino)-9,9-dimethylxanthene) (Fig. 1b). For additional information on the precursor molecules and radiolabeling methods, see the electronic supplement. A high-performance liquid chromatography (HPLC) metabolite analysis method was developed to quantify the ratio of [^11C-N-CH3]UCB2713 and other unidentified metabolites in plasma and brain homogenate samples. Relative quantification was used to provide the ratio of parent to metabolite in these samples.
Preclinical experiments were conducted on male C57 black 6 mice (N = 10). In vivo experiments were performed on 3 mice and included a PET scan of the brain; ex vivo experiments were performed on all 10 mice and included samples of brain homogenate.
[11C]UCB2713 in vivo/ex vivo Evaluation
Administration of Radioligand and Collecting Samples
Each mouse received an intravenous (IV) bolus injection of [11C]UCB2713 via the jugular vein. The mean (standard deviation [SD]) mass of each radiotracer dose was 1.54 (± 1.03) µg; with a radioactive dose of 17.26 (± 10.88) MBq. At pre-defined time points (40, 60, and 90 min) post-administration of [11C]UCB2713, each mouse was euthanized by exsanguination, followed by cervical dislocation, with blood samples collected in heparin tubes and the brain dissected.
Brain Sample Processing and Preparation of Sample for Analysis
A sample of brain homogenate (1:1, brain:water) was assessed for radioactivity using a γ-counter. Brain homogenate was extracted with a ratio of 1:2 (homogenate:acetonitrile); a ratio of 1:1 was used for the first two animals. The mixture was vortexed for 3 min followed by centrifugation (12000 x g) for 5 min at room temperature. The extraction efficiency was […]
Brain extraction efficiency = counts per minute (CPM) in supernatant (brain extract)/CPM in brain homogenate extracted
To identify the parent-retention time based on the ultraviolet (UV) chromatogram, 20 µL of a solution containing UCB2713 was added to the supernatant (350 µL), followed by 350 µL of 50 mM ammonium formate (adjusted to pH 8), then 0.5 mL of the resulting solution was injected onto the high-performance liquid chromatography (HPLC) column.
Two aliquots of this solution were counted to determine the HPLC recovery as follows:
Recovery efficiency % = = i=1 ∙100 […]
Where “CPM(aliq.)” is the radioactivity measured for the HPLC brain homogenate samples aliquot, “Valiq.” Is the volume of each aliquot , “CPM fi” is the count per minute for fraction “i” and ∑ 30 is the sum of 30 fractions.
Mouse blood samples were centrifuged at 7500 x g for 3 min at 4 °C and plasma was extracted with a ratio of 1:1 (plasma:acetonitrile). The plasma extraction efficiency was […]
Plasma extraction efficiency = CPM in supernatant (plasma extract)/CPM in plasma […]
Samples were prepared as described above for the brain, and two aliquots of solution were counted to determine the HPLC column recovery.
HPLC Procedure and Data Analysis
The HPLC system used a pump, degasser, UV-Vis/Diode Array Detector, and fraction collector. HPLC conditions used were 55% acetonitrile and 45% 100 mM ammonium formate (Method 1), or 48% acetonitrile and 52% 100 mM ammonium formate (adjusted to pH 8; Method 2) as the mobile phase at 5 mL/min and an Agilent XDB-C18 semi-preparative […]
column (5 micron, 250 x 9.4 mm; Method 2); 30 sample fractions (Method 1) and 36 sample fractions (Method 2) were collected over either a 10- or 12-min run.
A radio-chromatogram was reconstructed from the HPLC fractions collected and the […]

Series [2] is described as follows: Safety and tolerability in TM0017 (TEAEs, ECG, vital signs). To be noted: TM0017, N = 4, IV radiotracer (≤ 10 µg).
Procedure: Other safety variables recorded include changes in 12-lead electrocardiogram (ECG) assessment and changes in vital signs (heart rate, systolic blood pressure, diastolic blood pressure, respiratory rate, and body temperature). Vital signs were measured in supine position following 5 min of rest and clinically significant abnormalities (according to the investigator) were recorded as an AE. All ECG recordings were performed following 5 min of rest in the supine position, in triplicate, with ≥ 1 min between each recording. If any clinically significant abnormalities occurred, an ECG data specialist was to review the recordings.
The nature of series [3]: Arterial plasma radio-metabolite analysis during PET scans (TM0017). In kind it is in vivo, human. The source says: (§1) Arterial input function data were acquired and processed for all PET scans.
A short description of series [4]: Phase 1 PET-CT brain biodistribution study TM0017 (VT, K1, k2). The series is classed as in vivo, human. As to the method:
A sample size of 2–10 participants was considered sufficient to meet the objectives, whilst limiting radiation exposure.
The preparation of radiopharmaceuticals and execution of PET-CT scans was performed by radiochemists, physicians, and technologists of Invicro (London, UK). Following local anesthesia, a catheter was inserted into the radial artery by an experienced physician; two venous catheters were also inserted. […] Upon administration, dynamic scanning started immediately and continued for 90 min.
as §1
Anatomical regions of interest (ROI) were defined via nonlinear deformation of a template MR image and associated neuroanatomical atlas, to match individual participants’ MR images. These ROI included, but were not limited to: parietal lobe, occipital lobe, frontal lobe, temporal lobe, striatum, cerebellum, thalamus, and the brain stem. Participants’ PET images were registered to their MR images, enabling the individualized ROI to be applied to the dynamic emission data to generate regional time activity curves (TACs). For additional information on the generation of regional TACs, see the electronic supplement.
Phase 1 PET Study in Healthy Male Participants (TM0017)
The TAC and total plasma data were fitted to a single compartment model to determine the influx and efflux constants K1 and k2. Because the plasma free fraction estimate is imprecise, we elected to fit the model using the total (free and bound) arterial concentration input function. The parameters of this model are related to the analogous parameters which would be estimated using an accurate estimate of the free arterial concentration using the equations below. We were able therefore to determine and present the K1 and estimated whole brain total distribution volume (VT), with relatively good repeatability between patients, and the equations below could also be used to relate the overall mean estimates back to the ideal total brain to free plasma minzasolmin (V’T) and unidirectional extraction Eu which can be calculated using the free fraction. The blood volume in the model was fixed at 5%. In this model, radiotracer which is free in tissue, non-specifically bound and specifically bound (i.e. to a target of interest) are lumped together in a single compartment, and so interchange between those states is assumed to be rapid.
The arterial input function used represents the total concentration of parent radiotracer in plasma, with no correction for plasma protein binding and the fitted and observed K1 from this model is lower than the rate of uptake from the free plasma concentration (K’1):
To calculate the Eu from the observed K1 from the model we then need to combine […]
The partition coefficient between total brain and total plasma concentration was determined from the fitted K1 and k2 parameters: […]
and the ratio of total concentration in brain to free concentration in plasma ( V’T) could be […]
Supplemental Fig. 1. Example of HPLC chromatograms (radioactive trace, top; UV trace, bottom) obtained during HPLC analysis of [11C-N-CH3]UCB2713 dose. The time delay

Where [5] appears, read: Cerebellum, Scan 2 (after oral minzasolmin 360 mg).
The mark [6] stands for this setting: Cerebral white matter, Scan 1 (baseline).
[7] abbreviates: Cerebral white matter, Scan 2 (after oral minzasolmin 360 mg).
The mark [8] stands for this setting: Frontal lobe, Scan 1 (baseline).
The mark [9] stands for this setting: Frontal lobe, Scan 2 (after oral minzasolmin 360 mg).
Setting [10] is: Gray matter, Scan 2 (after oral minzasolmin 360 mg).
Setting [11] is: Occipital lobe, Scan 1 (baseline).
[12] abbreviates: Occipital lobe, Scan 2 (after oral minzasolmin 360 mg).
The mark [13] stands for this setting: Parietal lobe, Scan 1 (baseline).
The mark [14] stands for this setting: Parietal lobe, Scan 2 (after oral minzasolmin 360 mg).
Setting [15] is: Striatum, Scan 2 (after oral minzasolmin 360 mg).
[16] abbreviates: Temporal lobe, Scan 1 (baseline).
The mark [17] stands for this setting: Temporal lobe, Scan 2 (after oral minzasolmin 360 mg).
Where [18] appears, read: mixed effects model, after oral minzasolmin 360 mg.

For `CCCC[C@@H](Cc1c[nH]c2ccccc12)N[11C](=O)c1cnc(N2CCN(C)CC2)s1` [[^11C-CO]UCB2713], the “parent fraction in brain tissue” value in series [1] (in-vivo metabolism studies in mice) is reported as > 95%. The “polar metabolites in mouse brain” value in series [1] (radio-HPLC column eluent front ~1.5-2 min) is “no polar metabolite present in the mouse brain”.
Take `CCCC[C@H](Cc1c[nH]c2ccccc12)NC(=O)c1cnc(N2CCN([11CH3])CC2)s1` [[^11C]minzasolmin]: the “Any TEAEs” value in series [2] is given as 3 (75) n (%). Further, in series [2], the Deaths is 0 n (%). Moreover, the “Discontinuations due to TEAEs” value in series [2] is 0 n (%). In addition, the “Drug-related TEAEs” value in series [2] was 0 n (%). The “Serious TEAEs” value in series [2] is reported as 0 n (%). Also, the “Severe TEAEs” value in series [2] is on record as 0 n (%). The “TEAEs of special interest” value in series [2] is listed as 0 n (%). Also, the “radioactivity in plasma attributable to intact parent radiotracer” value in series [3] (human arterial plasma, at 90 min) is on record as ~ 50%. The “total parent fraction during the radiotracer brain uptake phase” value in series [3] (human plasma, up to 30 min) is > 70%. Besides, the K1 in series [4] (Cerebellum, Scan 1 (baseline)) is given as 0.02 mL/cm^3/min; in series [4] (setting [5]) it was 0.018 mL/cm^3/min; in series [4] (setting [6]), 0.008 mL/cm^3/min; in series [4] (setting [7]), 0.007 mL/cm^3/min; in series [4] (setting [8]), 0.017 mL/cm^3/min; in series [4] (setting [9]), 0.014 mL/cm^3/min. The K1 in series [4] (Gray matter, Scan 1 (baseline)) turned out to be 0.017 mL/cm^3/min; in series [4] (setting [10]), 0.015 mL/cm^3/min; in series [4] (setting [11]), 0.019 mL/cm^3/min; in series [4] (setting [12]), 0.017 mL/cm^3/min; in series [4] (setting [13]), 0.017 mL/cm^3/min; in series [4] (setting [14]), 0.015 mL/cm^3/min. The K1 is 0.015 mL/cm^3/min in series [4] (Striatum, Scan 1 (baseline)); 0.013 mL/cm^3/min in series [4] (setting [15]); 0.017 mL/cm^3/min in series [4] (setting [16]); 0.015 mL/cm^3/min in series [4] (setting [17]). Further, the VT in series [4] (Cerebellum, Scan 1 (baseline)) was 0.522 mL/cm^3; in series [4] (setting [5]) it was 0.499 mL/cm^3; in series [4] (setting [6]), 0.469 mL/cm^3; in series [4] (setting [7]) it was 0.523 mL/cm^3; in series [4] (setting [8]), 0.539 mL/cm^3; in series [4] (setting [9]), 0.539 mL/cm^3. Besides, the VT was 0.547 mL/cm^3 in series [4] (Gray matter, Scan 1 (baseline)); 0.542 mL/cm^3 in series [4] (setting [10]); 0.548 mL/cm^3 in series [4] (setting [11]); 0.555 mL/cm^3 in series [4] (setting [12]); 0.551 mL/cm^3 in series [4] (setting [13]); 0.574 mL/cm^3 in series [4] (setting [14]). In addition, the VT was found to be 0.545 mL/cm^3 in series [4] (Striatum, Scan 1 (baseline)); 0.528 mL/cm^3 in series [4] (setting [15]); 0.566 mL/cm^3 in series [4] (setting [16]); 0.557 mL/cm^3 in series [4] (setting [17]). In addition, the “VT before and after dosing with minzasolmin 360 mg” value in series [4] (Scan 1 vs Scan 2) is “no difference in VT”. Moreover, in series [4] (across each participant and all ROI, from total plasma concentrations), the “overall mean brain influx rate (K1)” value is 0.015 mL/cm^3/min. In addition, the “qualitative assessment of the PET images” value in series [4] (following radiotracer injections) is listed as “distributed throughout the brain”. Further, the “mean difference in VT between Scan 1 and Scan 2” value in series [4] (least squares mean of mixed model over all regions and participants) was -0.008 mL/cm^3. Moreover, the “change in K1 after oral dosing” value in series [4] (setting [18]) was -15.9%. In series [4] (setting [18]), the “change in k2 after oral dosing” value is recorded as -9.3%.
For `CCCC[C@@H](Cc1c[nH]c2ccccc12)N[11C](=O)c1cnc(N2CCNCC2)s1` [desmethyl-[^11C-CO]UCB2713], the “amount of desmethyl metabolite observed in mouse brain” value in series [1] (radio-HPLC of brain homogenate after [11C-CO]UCB2713) is listed as ~ 2%.
